Assays:
Type in all cases: in vivo
[1] = system: Italian ryegrass (Lolium multiflorum); test: Test B pre-/postemergence plant response; details: Postemergence
Method in brief: (§1)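 Visual ratings on a 0–100 scale (100 = complete control) were made versus untreated controls 13–15 days after treatment in a greenhouse. Compounds in surfactant-containing non-phytotoxic solvent were applied preemergence to seeds in loam–sand blend or postemergence to 1- to 4-leaf plants (2–18 cm).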

[2] = system: bermudagrass (Cynodon dactylon); test: Test B pre-/postemergence plant response; details: for Bermudagrass plant response rating (0 to 100 scale): 62 g ai/ha, postemergence, 0 is no effect, 100 is complete control; for Plant response rating, Bermudagrass: Postemergence
Method in brief: as §1

[3] = system: lambsquarters (Chenopodium album); test: Test B pre-/postemergence plant response; details: Postemergence
Method in brief: as §1

[4] = system: pigweed (Amaranthus retroflexus); test: Test B pre-/postemergence plant response; details: Postemergence
Method in brief: as §1

[5] = system: ragweed (common ragweed, Ambrosia elatior); test: Test B pre-/postemergence plant response; details: Postemergence
Method in brief: as §1

[6] = system: wheat (Triticum aestivum); test: Test B pre-/postemergence plant response; details: Postemergence
Method in brief: as §1

[7] = system: canarygrass (Phalaris minor); test: Test B postemergence plant response; details: Postemergence
Method in brief: (§2)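 Visual ratings from 0 (no effect) to 100 (complete control), made against controls 13–15 days after treatment, kept in a greenhouse. Compounds were applied postemergence to potted plants at the 1- to 4-leaf stage (2–18 cm).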

[8] = system: chickweed (Stellaria media); test: Test B postemergence plant response; details: Postemergence
Method in brief: as §2

[9] = system: windgrass (Apera spica-venti); test: Test B postemergence plant response; details: Postemergence
Method in brief: as §2

[10] = system: winter barley (Hordeum vulgare); test: Test B postemergence plant response; details: for Barley plant response rating (0 to 100 scale): 62 g ai/ha, postemergence, 0 is no effect, 100 is complete control; for Plant response rating, Barley: Postemergence
Method in brief: as §2

[11] = 31 g ai/ha, 0 to 100 scale (0 no effect, 100 complete control)
[12] = 125 g ai/ha, scale 0 to 100 (0 no effect, 100 complete control)
[13] = 250 g ai/ha, scale 0 to 100 (0 no effect, 100 complete control), 13 to 15 days

SMILES	Plant response rating, Ryegrass, Italian [1, 11]	Plant response rating, Ryegrass, Italian [1, 12]	Plant response rating, Ryegrass, Italian [1, 13]	Bermudagrass plant response rating (0 to 100 scale) ([2]; 13 to 15 days)	Plant response rating, Bermudagrass [2, 11]	Plant response rating, Bermudagrass [2, 12]	Plant response rating, Bermudagrass [2, 13]	Plant response rating, Lambsquarters [3, 11]	Plant response rating, Lambsquarters [3, 12]	Plant response rating, Lambsquarters [3, 13]	Plant response rating, Pigweed [4, 11]	Plant response rating, Pigweed [4, 12]	Plant response rating, Pigweed [4, 13]	Plant response rating, Ragweed [5, 11]	Plant response rating, Ragweed [5, 12]	Plant response rating, Ragweed [5, 13]	Plant response rating, Wheat [6, 11]	Plant response rating, Wheat [6, 12]	Plant response rating, Wheat [6, 13]	Plant response rating, Canarygrass [7, 11]	further results
O=C1CCCC(O)=C1C(=O)c1cnc(C2CC2)n(C2CCCCC2)c1=O [Compound 160]	0	35	35	75	65	90	95	95	98	98	90	100	100	80	98	98	10	40	45	5	Plant response rating, Canarygrass [7, 12]: 20; Plant response rating, Canarygrass [7, 13]: 35; Plant response rating, Chickweed [8, 11]: 85; Plant response rating, Chickweed [8, 12]: 95; Plant response rating, Chickweed [8, 13]: 100; Plant response rating, Windgrass [9, 11]: 20; Plant response rating, Windgrass [9, 12]: 60; Plant response rating, Windgrass [9, 13]: 80; Barley plant response rating (0 to 100 scale) ([10]; 13 to 15 days): 30; Plant response rating, Barley [10, 11]: 5; Plant response rating, Barley [10, 12]: 35; Plant response rating, Barley [10, 13]: 50
Cc1ccc(-n2c(-c3cc(F)cc(F)c3)ncc(C(=O)C3=C(O)CCCC3=O)c2=O)cc1 [Compound 162]	40	80	90	95	85	100	100	80	98	100	100	100	100	90	100	100	10	35	40	40	Plant response rating, Canarygrass [7, 12]: 90; Plant response rating, Canarygrass [7, 13]: 90; Plant response rating, Chickweed [8, 11]: 90; Plant response rating, Chickweed [8, 12]: 100; Plant response rating, Chickweed [8, 13]: 100; Plant response rating, Windgrass [9, 11]: 40; Plant response rating, Windgrass [9, 12]: 60; Plant response rating, Windgrass [9, 13]: 80; Barley plant response rating (0 to 100 scale) ([10]; 13 to 15 days): 35; Plant response rating, Barley [10, 11]: 30; Plant response rating, Barley [10, 12]: 50; Plant response rating, Barley [10, 13]: 85
CCCn1c(-c2cc(Cl)cc(Cl)c2)ncc(C(=O)C2=C(O)CCCC2=O)c1=O [Compound 173]	0	30	30	98	98	100	100	98	100	100	85	100	100	55	90	98	10	40	50	10	Plant response rating, Canarygrass [7, 12]: 40; Plant response rating, Canarygrass [7, 13]: 80; Plant response rating, Chickweed [8, 11]: 65; Plant response rating, Chickweed [8, 12]: 100; Plant response rating, Chickweed [8, 13]: 100; Plant response rating, Windgrass [9, 11]: 30; Plant response rating, Windgrass [9, 12]: 70; Plant response rating, Windgrass [9, 13]: 75; Barley plant response rating (0 to 100 scale) ([10]; 13 to 15 days): 20; Plant response rating, Barley [10, 11]: 5; Plant response rating, Barley [10, 12]: 35; Plant response rating, Barley [10, 13]: 50

Source: US8952024B2, “Herbicidal pyrimidone derivatives” (E I du Pont de Nemours and Company, priority 2009, dated 2015)
